PMC6152131, “Pharmacokinetic Study of Biotransformation Products from an Anxiolytic Fraction of Tilia americana” (Molecules : A Journal of Synthetic Chemistry and Natural …, 2017)

Assays:
[1] = Pharmacokinetic analysis, two-compartment model (PKSolver); format: in vivo, ICR mice; conditions: two-compartment model
Method: The data shown in Table 2 were applied to the program PKSolver. After a single oral administration of 200 mg/kg of the anxiolitic fraction of T. americana, the behavior of the concentration-time data allowed us to determine the main pharmacokinetic parameters under a two-compartment model (Table 3), and the same program provided the graphical behavior of the variables and the adjustment to the two-compartment model.
To evaluate the suitability of the assay for the pharmacokinetic studies, 200 mg/kg of the active fraction was orally administered to the animals. Ten animals were used in each group at different times (0, 5, 10, 15, 30, 60, 120, 240, 480, 720, and 1440 min). Pharmacokinetic calculations were performed using the observed data. All data was subsequently processed using the PKSolver add-in program for Microsoft Excel written in Visual Basic for Applications. All values obtained were expressed in mean ± standard deviation.
For the pharmacokinetic assay, the selection was made either from a one-compartment or a two-compartment model, with the use of both the Akaike information criterion (AIC) and the Schwarz criterion (SC). Using these two criteria, one can select which model is more suited to being adjusted, to the point where it reaches the lowest values of the AIC or SC criteria, which means that the chosen model is more parsimonious (less parameters required) and best fits the data (low error prediction).

[2] = Stability of flavonoids and biotransformation products in mouse plasma under different handling conditions; format: in vitro ADME, mice; conditions: for Accuracy Bias 0 h / Observed Conc. 0 h / Accuracy Bias 8 h / Observed Conc. 8 h / Accuracy Bias 24 h / Observed Conc. 24 h: room temperature (25 °C); for Observed Conc. 0 h / Observed Conc. 8 h / Observed Conc. 24 h / Observed Conc. Autosampler (4 °C; 8 h) / Observed Conc. Long-term (−70 °C; 1 month): n = 6; for Accuracy Bias Autosampler (4 °C; 8 h) / Accuracy Bias Long-term (−70°C; 1 month) / Observed Conc. Autosampler (4 °C; 8 h) / Observed Conc. Long-term (−70 °C; 1 month): storage stability
Summary of the method: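 Mouse plasma QC samples containing the flavonoids and their biotransformation products were tested for stability across storage and handling conditions, including long-term, autosampler and bench-top tests. Samples were extracted with methanol, filtered, and analyzed by HPLC on an RP-18e column with acetonitrile–water (55:45) at 1 mL/min and detection at λ = 220 nm. Results were compared against fresh QC samples; stability required deviation below 15%.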

[3] = Plasma concentration after a single oral dose of the anxiolytic fraction (HPLC); format: in vivo, ICR mice; conditions: mouse, plasma, ICR mice, n = 10
Summary of the method: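 Animals dosed orally with 200 mg/kg of active fraction; retro-orbital blood taken from separate groups of ten at 0–1440 min. Lyophilized plasma extracted in methanol and analysed by RP-18 HPLC with diode-array detection at 220 nm against a calibration curve; PK parameters from observed data, mean ± SD.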

[4] = mouse, oral 200 mg/kg anxiolytic fraction, ICR mice plasma
[5] = oral 200 mg/kg anxiolytic fraction, ICR mice plasma
[6] = oral 200 mg/kg anxiolytic fraction, ICR mice plasma, n = 10
[7] = high nominal conc. (7.00; 44.37; 4.50; 31.25 µg/mL)
[8] = low nominal conc. (1.75; 11.02; 1.12; 1.95 µg/mL)
[9] = medium nominal conc. (3.50; 22.18; 2.24; 7.81 µg/mL)

## O=C(O)Cc1ccc(O)cc1 [p-HPAA, para-hydroxyphenylacetic acid]
[1]; [4]
  AUC(0-inf): 183 µg·h/mL
  Cmax: 6260 ng/mL
  Tmax: 0.186 h
[1]; mouse, oral 200 mg/kg anxiolytic fraction, ICR mice plasma, read-out: AUC0→1440 (converted)
  AUC(0-t): 73.7 µg·h/mL
[1]; mouse, oral 200 mg/kg anxiolytic fraction, ICR mice plasma, read-out: MRT (mean residence time) (converted)
  MRT: 47.2 h
[1]; mouse, oral 200 mg/kg anxiolytic fraction, ICR mice plasma, read-out: k10 (apparent first-order elimination rate constant from the central compartment) (converted)
  k el: 1e-05 s⁻¹
[1]; mouse, oral 200 mg/kg anxiolytic fraction, ICR mice plasma, read-out: t1/2β
  half-life: 33.2 h
[1]; [5]
  CL/F (apparent clearance): 0.018 (mg/Kg)/(μg/mL)/min
  V/F (apparent volume of distribution): 29.46 (mg/Kg)/(µg/mL)
  k12 (transfer rate constant central to peripheral compartment): 0.007 min⁻¹
  k21 (transfer rate constant peripheral to central compartment): 0.009 min⁻¹
  ka (apparent first-order absorption rate constant): 0.36 min⁻¹
  t1/2ka (absorption half time): 1.92 min
  t1/2α: 0.7042 h
  α: 0.02 min⁻¹
  β: 0.0003 min⁻¹
[1]; [6]
  A (plasma concentration coefficient, central compartment): 3.19 µg/mL
  B (plasma concentration coefficient, peripheral compartment): 3.75 µg/mL
[1]
  index: relation between rate constants of k12 with respect to k21: 0.77
[2]; high nominal conc.
  Accuracy Bias 0 h: 1.64%
  Accuracy Bias 8 h: 1.26%
  Accuracy Bias 24 h: 1.26%
  Accuracy Bias Autosampler (4 °C; 8 h): 1.40%
  Accuracy Bias Long-term (−70°C; 1 month): 0.85%
[2]; high nominal conc. (rutin 7.00; quercetin glucoside, quercitrin, tiliroside 44.37; kaempferol 4.50; m-HPAA, p-HPAA, DOPAC 31.25 µg/mL)
  Observed Conc. 0 h: 31.76 ± 0.28 µg/mL
[2]; low nominal conc.
  Accuracy Bias 0 h: 1.44%
  Accuracy Bias 8 h: 1.40%
  Accuracy Bias 24 h: 0.85%
  Accuracy Bias Autosampler (4 °C; 8 h): 1.26%
  Accuracy Bias Long-term (−70°C; 1 month): 1.26%
[2]; low nominal conc. (rutin 1.75; quercetin glucoside, quercitrin, tiliroside 11.02; kaempferol 1.12; m-HPAA, p-HPAA, DOPAC 1.95 µg/mL)
  Observed Conc. 0 h: 1.92 ± 0.02 µg/mL
[2]; medium nominal conc.
  Accuracy Bias 0 h: 0.65%
  Accuracy Bias 8 h: 2.05%
  Accuracy Bias 24 h: 1.01%
  Accuracy Bias Autosampler (4 °C; 8 h): 2.05%
  Accuracy Bias Long-term (−70°C; 1 month): 1.01%
[2]; medium nominal conc. (rutin 3.50; quercetin glucoside, quercitrin, tiliroside 22.18; kaempferol 2.24; m-HPAA, p-HPAA, DOPAC 7.81 µg/mL)
  Observed Conc. 0 h: 7.86 ± 0.11 µg/mL
[2]; [7]
  Observed Conc. 8 h: 31.64 ± 0.28 µg/mL
  Observed Conc. 24 h: 31.64 ± 0.31 µg/mL
  Observed Conc. Autosampler (4 °C; 8 h): 31.64 ± 0.28 µg/mL
  Observed Conc. Long-term (−70 °C; 1 month): 31.64 ± 0.28 µg/mL
[2]; [8]
  Observed Conc. 8 h: 1.92 ± 0.02 µg/mL
  Observed Conc. 24 h: 1.93 ± 0.01 µg/mL
  Observed Conc. Autosampler (4 °C; 8 h): 1.93 ± 0.02 µg/mL
  Observed Conc. Long-term (−70 °C; 1 month): 1.92 ± 0.01 µg/mL
[2]; [9]
  Observed Conc. 8 h: 7.94 ± 0.11 µg/mL
  Observed Conc. 24 h: 7.89 ± 0.05 µg/mL
  Observed Conc. Autosampler (4 °C; 8 h): 7.89 ± 0.11 µg/mL
  Observed Conc. Long-term (−70 °C; 1 month): 7.97 ± 0.05 µg/mL
[3]; 5 min after single oral dose of 200 mg/kg of the anxiolytic fraction, ND = not detected
  concentration at 5 min: 5400 ± 360 ng/mL
[3]; 10 min after single oral dose of 200 mg/kg of the anxiolytic fraction
  concentration at 10 min: 6710 ± 440 ng/mL
[3]; 15 min after single oral dose of 200 mg/kg of the anxiolytic fraction
  concentration at 15 min: 6010 ± 330 ng/mL
[3]; 30 min after single oral dose of 200 mg/kg of the anxiolytic fraction
  concentration at 30 min: 5380 ± 510 ng/mL
[3]; 60 min after single oral dose of 200 mg/kg of the anxiolytic fraction
  concentration at 60 min: 5310 ± 540 ng/mL
[3]; 120 min after single oral dose of 200 mg/kg of the anxiolytic fraction
  concentration at 120 min: 5290 ± 320 ng/mL
[3]; 240 min after single oral dose of 200 mg/kg of the anxiolytic fraction
  concentration at 240 min: 5150 ± 230 ng/mL
[3]; 480 min after single oral dose of 200 mg/kg of the anxiolytic fraction
  concentration at 480 min: 5080 ± 240 ng/mL
[3]; 720 min after single oral dose of 200 mg/kg of the anxiolytic fraction
  concentration at 720 min: 4990 ± 350 ng/mL
[3]; 1440 min after single oral dose of 200 mg/kg of the anxiolytic fraction
  concentration at 1440 min: 4910 ± 210 ng/mL
